Calls of active or inactive are those of the source. No rule for the calls is given here.

The assay addresses Replicase polyprotein 1ab (Severe acute respiratory syndrome coronavirus) (UniProt P0C6X7). The assay can be described thus: SARS 3CLpro cleavage inhibition IC50 – biochemical, quenched FRET, dose response (AID 1890). As to conditions: purified 3CLpro, quenched FRET peptide cleavage.
One may read the IC50 as the concentration at which inhibition is half-maximal. Regarding `COc1ccc(N(C(=O)Cn2nnc3ccccc32)C2(C(=O)NC3CCCC3)CCCCC2)cc1`, the 50% inhibitory concentration (IC50) is 7.89 µM. For `CCCCOc1ccc(C(=O)Oc2cccnc2)cc1` the value was > 59.6 µM (inactive); for `Cc1ccc(C2CC(c3cccs3)=NN2C(=O)CCl)cc1` (stereo unspecified), 4.19 µM. The value for `O=C(CSc1ccccn1)Nc1nonc1[N+](=O)[O-]` was 7.07 µM; that for `Nc1ncc(Br)cc1S(=O)(=O)Nc1cc(C(F)(F)F)cc(C(F)(F)F)c1` was > 59.6 µM (inactive). The value for `Cc1cccc2c1N(CCOc1ccccc1)C(=O)C2=O` was “inactive”.

In the case of `Cc1cc(C)c(N(C(=O)Cn2nnc3ccccc32)C(C(=O)NC(C)(C)C)c2ccsc2)c(C)c1` (stereo unspecified), the half-inhibitory concentration (IC50) was 2.9 µM. On to `CC(=O)n1cc(N(C(=O)CCl)c2ccc([N+](=O)[O-])cc2)c2ccccc21`, for which the IC50 result is “inactive”.

For the molecule `Cc1cccc(N2CCN(C(=O)c3cc(=O)[nH]c4ccccc34)CC2)c1C`, the half-inhibitory concentration (IC50) was 6.66 µM.

As for `O=C(Cn1nnc2ccccc21)c1ccc(Cl)cc1`, the IC50 was 9.91 µM. For the molecule `O=C(Nc1ccccc1)NN(C(=O)CCl)c1ccccc1`, the half-inhibitory concentration (IC50) is 9.64 µM.

On to `Cc1ccc(/C=C/C(=O)c2cc(Br)ccc2OC(=O)c2ccco2)cc1`, for which the IC50 result was “inactive”. For `COc1ccc(C(C(=O)NCC2CCCO2)N(C(=O)Cn2nnc3ccccc32)c2ccc(NC(C)=O)cc2)cc1` (stereo unspecified) the value was 9.35 µM. The value for `CN(C)S(=O)(=O)c1cccc(NC(=O)CSc2cccc3cccnc23)c1` was “inactive”. The value for `COc1ccc(C(=O)n2c(SC)nc3cc4c(cc32)OCCO4)cc1` was 1.08 µM; that for `Cn1cnc2cc(NC(=O)c3ccc(Cl)cc3)ccc21` was “inactive”.

`O=C(NCc1ccco1)C(c1ccco1)N(C(=O)Cn1nnc2ccccc21)c1ccc2c(c1)CCC2` (stereo unspecified): the IC50 result is “inactive”.

Turning to `COc1ccccc1/C=C/C(=O)c1cc(Br)ccc1OC(=O)c1ccco1`, the half-inhibitory concentration (IC50) was 8.94 µM. The value for `Cc1ccc(C(=O)O)cc1NC(=S)NC(=O)c1ccc(COc2ccccc2)cc1` was > 59.6 µM (inactive); that for `Cc1nnc(SC(=O)N2c3ccccc3Sc3ccccc32)s1` was “inactive”; that for `COc1ccc(C(=O)Oc2cccnc2)cc1` was > 59.6 µM (inactive). For `O=C(/C=C/c1ccccc1Cl)Nc1cccnc1` the value was “inactive”; for `CC(C)c1ccc(N(C(=O)c2csnn2)C(C(=O)NC2CCCC2)c2cccnc2)cc1` (stereo unspecified), “inactive”.

As for `O=C(Oc1cccnc1)c1ccc(Cl)cc1`, the half-maximal inhibitory concentration (IC50) is 6.31 µM. For `Cc1ccc(C(=O)c2c3ccc(C(F)(F)F)cc3[n+]([O-])n2CCC(N)=O)cc1` the value was “inactive”; for `O=C(c1cc(=O)[nH]c2ccccc12)N1CCN(c2ccccc2)CC1`, 9.95 µM; for `O=C(O)c1[nH]c2ccccc2c1C(c1cc(Br)ccc1O)c1c(C(=O)O)[nH]c2ccccc12`, > 59.6 µM (inactive).

As for `CC1(C)C2CC=C(/C=N/NC(=S)Nc3cccnc3)C1C2` (stereo unspecified), the IC50 is > 59.6 µM (inactive). Turning to `COC(=O)c1ccc(OC(=O)CN2C(=O)c3ccccc3C2=O)cc1`, the IC50 was > 59.6 µM (inactive).

Consider `O=C(/C=C/c1cccs1)Nc1scc(-c2ccccc2)c1C(=O)O`, for which the concentration for half-maximal inhibition (IC50) is 5.22 µM.

With `C[C@@]12C(=O)N(c3cccc(Br)c3)C(=O)N1[C@H](c1ccc(Cl)cc1)[C@@H]1C(=O)N(C3CCCCC3)C(=O)[C@@H]12`, the IC50 was > 59.6 µM (inactive). Consider `COc1cccc(C(C(=O)NCC2CCCO2)N(C(=O)Cn2nnc3ccccc32)c2ccc(NC(C)=O)cc2)c1` (stereo unspecified), for which the IC50 result was “inactive”.

As to `COc1cc(/C=N\NC(=O)Cn2nnc3ccccc32)cc(OC)c1OC`, the IC50 was 5.18 µM.

Regarding `CCc1nc(N2CCN(C(=O)CCl)CC2)c2c3c(sc2n1)CC(C)CC3` (stereo unspecified), the IC50 was 4.23 µM.

With `O=C(O)COc1ccc(Br)cc1C(c1c(C(=O)O)[nH]c2ccccc12)c1c(C(=O)O)[nH]c2ccccc12`, the IC50 was > 59.6 µM (inactive).

Turning to `Cc1cc(NC(=O)COn2nnc3ccc(S(C)(=O)=O)cc32)ccc1Br`, the IC50 result is “inactive”. For `Cc1sc(NC(=O)CCl)c(C(=O)c2ccccc2)c1C` the value was “inactive”; for `O=C(/C=C/c1c(F)cccc1Cl)Nc1cccnc1`, “inactive”; for `Cc1ccc(C(=O)c2c3ccccc3[n+]([O-])n2CCC(N)=O)cc1`, 9.36 µM. As for `Cc1ccc(-c2cc(NC(=O)c3ccccc3[N+](=O)[O-])n[nH]2)cc1`, the IC50 entry is “inactive”. For `O=C(Cn1nnc2ccccc21)c1ccc(Br)cc1` the value was 4.01 µM; for `Cc1ccc(C(=O)n2cnc3ccccc32)cc1C`, “inactive”; for `CCc1cc(=O)oc2cc(OC(=O)c3ccco3)ccc12`, 2.96 µM. For the molecule `NC(=O)CCn1c(C(=O)c2cccc([N+](=O)[O-])c2)c2ccccc2[n+]1[O-]`, the IC50 entry is “inactive”.

On to `CCc1cccc(CC)c1N(COC)C(=O)Cn1nnc2ccccc21`, for which the IC50 result was “inactive”. The value for `COc1cccc(/C=N/NC(=S)Nc2cccnc2)c1` was “inactive”. The value for `O=C(O)c1ccc2ncsc2c1` was “inactive”. For `CC(C)C[C@H](NC(=O)c1nc[nH]c1C(=O)NCc1ccc(CNC(=O)OC(C)(C)C)cc1)C(=O)OC(C)(C)C` the value was > 59.6 µM (inactive); for `COc1ccc2c(c1)C(=O)C(=O)N2CC1COc2ccccc2O1` (stereo unspecified), 9.74 µM. `N#CCC(=O)N/N=C/c1c(-c2ccccc2)n(-c2ccccc2)c2ccccc12`: the IC50 is > 59.6 µM (inactive).

Consider `O=C(Cc1ccc(Cl)c(Cl)c1)Nc1cccnc1`, for which the IC50 result is “inactive”. `O=C(Oc1ccc(Cl)cc1N1C(=O)CCC1=O)c1ccco1`: the IC50 entry is “inactive”. The value for `CC(=O)NC1C(=O)N(CCN2CCOCC2)c2ccc(F)cc21` (stereo unspecified) was 9.1 µM; that for `Cc1cc(=O)oc2cc(OC(=O)c3ccco3)ccc12` was 3.34 µM. For `NC(=O)CCn1c(C(=O)c2ccc(Cl)cc2)c2ccccc2[n+]1[O-]`, the half-inhibitory concentration (IC50) is 4.88 µM. As for `CCn1nc(-c2ccccc2)nc2c(=O)n(C)c(=O)nc1-2`, the IC50 is > 59.6 µM (inactive).

As for `Cc1cc(NC(=O)COC(=O)C(Nc2ccc(C(F)(F)F)cc2Cl)C(C)C)no1` (stereo unspecified), the IC50 is > 59.6 µM (inactive). For `Cc1ccc2[nH]c3c(c2c1)CN(C(=O)CN1c2ccc(F)cc2CCC1C)CC3` (stereo unspecified) the value was “inactive”; for `CC(=O)Nc1ccc(N(C(=O)Cn2nnc3ccccc32)C(C(=O)NC2CCCC2)c2ccc(O)c(O)c2)cc1` (stereo unspecified), “inactive”. The value for `O=C(/C=C/c1ccc(Cl)c([N+](=O)[O-])c1)NCc1cccnc1` was “inactive”; that for `O=C(OCC(=O)N1c2ccccc2Sc2ccccc21)c1cccnc1` was “inactive”. For `O=C1C(=O)N(CCCc2ccccc2)c2ccccc21` the value was “inactive”; for `O=C1C(=O)N(C/C=C/c2ccccc2)c2ccccc21`, “inactive”.

With `CCN(CC)C(=O)Cn1cc(/C=C2\C(=O)NC(=O)N(c3ccccc3F)C2=O)c2ccccc21`, the IC50 result was “inactive”.

With `COc1cc2c(cc1OC)C(c1cc(Br)ccc1F)N(C(=O)CCl)CC2` (stereo unspecified), the IC50 was 9.88 µM.

For `CC1CCC2C(=O)N(c3cc(Cl)ccc3OC(=O)c3ccco3)C(=O)C2C1` (stereo unspecified), the IC50 is 5.39 µM. The value for `NC(=O)CCn1c(C(=O)c2cc(Cl)c(N)c(Cl)c2)c2ccccc2[n+]1[O-]` was 9.81 µM. For `Cc1cc(C)c(C)c(S(=O)(=O)N2CCN(C(=O)c3cc(=O)[nH]c4ccccc34)CC2)c1C` the value was 4.83 µM; for `CCc1ccc2c(c1)C(NC(C)=O)C(=O)N2CCN1CCOCC1` (stereo unspecified), 6.56 µM; for `CCC(C)c1ccc(N(C(=O)c2ccco2)C(C(=O)NC2CCCC2)c2cccnc2)cc1` (stereo unspecified), 2.23 µM. The value for `CC(C)c1ccc(N(C(=O)c2ccco2)C(C(=O)NC2CCCC2)c2cccnc2)cc1` (stereo unspecified) was 5.93 µM.

With `COc1cc(C2CC(c3cccs3)=NN2C(=O)CCl)ccc1OC(F)F` (stereo unspecified), the concentration for half-maximal inhibition (IC50) is 2.8 µM.

As to `COc1cccc(C(C(=O)Nc2ccc(F)cc2)N(C(=O)Cn2nnc3ccccc32)C2CC2)c1` (stereo unspecified), the IC50 result is “inactive”. For `O=C(c1cc(=O)[nH]c2ccccc12)N1CCN(c2cccc(C(F)(F)F)c2)CC1` the value was 5.1 µM. For `O=C1NC(=O)N(c2ccccc2F)C(=O)/C1=C/c1cn(CC(=O)N2CCOCC2)c2ccccc12` the value was “inactive”; for `CCOc1ccc2c(c1)C(=O)C(=O)N2CC1COc2ccccc2O1` (stereo unspecified), 4.29 µM; for `Cc1cc(=O)oc2cc(NC(=O)Cc3ccccc3[N+](=O)[O-])ccc12`, > 59.6 µM (inactive). For the molecule `CCC(C)(C)NC(=O)C(c1cccn1C)N(C(=O)Cn1nnc2ccccc21)c1ccc(NC(C)=O)cc1` (stereo unspecified), the IC50 was 6.29 µM. For `Cc1ccc(C2=NN(C(=O)CCl)C(c3ccco3)C2)o1` (stereo unspecified) the value was 5.2 µM; for `CCC(C)(C)NC(=O)C(c1ccc(O)cc1)N(C(=O)Cn1nnc2ccccc21)c1ccc(NC(C)=O)cc1` (stereo unspecified), “inactive”; for `COc1ccc(N(Cc2cc(=O)[nH]c3ccccc23)C(=O)CCl)cc1`, “inactive”. For the molecule `O=c1[nH]c(=O)n(-c2ccccc2F)c(O)c1/C=C1\C=Nc2ccccc21`, the half-inhibitory concentration (IC50) was 9.47 µM.

Consider `Cc1ccc(C(=O)Oc2ccc3c(c2)ncn3C)cc1`, for which the IC50 entry is “inactive”.

For `COc1ccc2cc(C3(C)NC(=O)N(CC(=O)NCc4ccco4)C3=O)ccc2c1` (stereo unspecified), the IC50 entry is “inactive”. For `CC(=O)NC1C(=O)N(CCN2CCOCC2)c2ccc(Br)cc21` (stereo unspecified) the value was 7.58 µM. In the case of `O=C(N/N=C\c1c(O)ccc2ccccc12)c1cncc(Br)c1`, the IC50 entry was “inactive”. For `COc1cccc(C(C(=O)NCc2ccco2)N(Cc2ccco2)C(=O)Cn2nnc3ccccc32)c1` (stereo unspecified) the value was 7.76 µM; for `COc1ccccc1OCCNC(=O)c1cc(=O)[nH]c2ccccc12`, 3.6 µM; for `Cn1nc(-c2ccc(Cl)cc2)nc2c(=O)n(C)c(=O)nc1-2`, > 19.9 µM (inactive). For `O=Cc1cn(Cc2ccccc2)nc1-c1cccnc1`, the IC50 is 7.21 µM. For `Cc1cc(C(=O)CCl)c(C)n1-c1cccc([N+](=O)[O-])c1` the value was 4.59 µM.

Values taken from PubChem BioAssay AID1890 (The Scripps Research Institute Molecular Screening Center, 2009).
